Experiments:
[1] = system: Primary Mouse Lung Fibroblasts; assay: TGF-β-induced insoluble collagen synthesis, 6-well plate format (Sircol); type: cell-based; details: Fibroblast, TGF-β 5 ng/ml, 72 hrs, p=0.026, read-out: inhibition of TGF-β-induced total collagen
Protocol: One hundred thousand Primary Mouse Lung Fibroblasts were plated in 6-well plates and incubated in complete DMEM until they reached confluency. The incubation medium was removed and complete DMEM containing Prolin (10 μM) and Ascorbic acid (20 μg/ml) was added.
Supernatant was removed, cells were washed with cold PBS, 1 ml Sircol reagent was added. The Sircol reagent contains the collagen binding dye Sirius red. The cells were scraped off with Sircol reagent and samples were shaken for 5 h at room temperature (RT), centrifuged at 10,000 rpm for 5 min, supernatant was removed, the pellet was washed in 0.5 M acetic acid to remove unbound dye, and recentrifuged at 10,000 rpm for 5 min, supernatant was removed and the final pellet was dissolved in 1 ml 0.5M NaOH and shaken at RT for 5 h. A sample of 100 μl of resultant solution was placed in 96-well. The color reaction was assessed by optical density at a wave length of 600 nm.

[2] = system: Primary Mouse Lung Fibroblasts; assay: TGF-β-induced soluble fibronectin ELISA; type: cell-based; details: Fibroblast
Protocol: (§1) Approximately 5,000 primary mouse lung fibroblasts were plated in complete DMEM in 96 well plates and incubated for 3 days at which time the cultures achieved confluency. After cells reached to confluency, medium was removed and fresh DMEM supplemented with ascorbic acid (20 μg/ml) and prolin (10 μM) was added. […] One hour later, TGF-β (5 ng/ml) was added to the appropriate cultures at a final concentration. After 72 hours, 200 μl samples of the supernatant were placed onto an ELISA plate and incubated overnight. After blocking with %1 BSA for 2 h, plates were incubated with either an anti-collagen type I antibody or an anti-fibronectin antibody.
(§2) The plates were washed after 1 hour and incubated with secondary horseradish peroxidase-conjugated antibodies (anti-goat for the collagen antibody, anti-rabbit for the fibronectin antibody). After a series of washing steps the color reagent TMB (3,3′,5,5′-Tetramethylbenzidine) was added and 15 minutes later the reactions were terminated with equal volumes of 2 N H2SO4. The levels of soluble collagen and fibronectin were determined by evaluating absorbance at 450 nm.

[3] = system: Primary Mouse Lung Fibroblasts; assay: TGF-β-induced soluble collagen ELISA; type: cell-based; details: Fibroblast
Protocol: as §1, §2

[4] = system: L929 cells; assay: TGF-induced collagen synthesis in L929 cells, 6-wells (SIRCOL); type: cell-based; details: 500 μM
Protocol: 100,000 L929 cells were plated in complete DMEN and incubated until confluency for 3 days. Medium was removed and complete DMEM containing Prolin (20 μg/ml) and ascorbic acid (10 μM) was added. […] Cells were further incubated for 72 hrs. Supernatant was removed, cells were washed with cold PBS, 1 ml SIRCOL reagent was added onto the cells and cells were scraped off, samples were shaken for 5 h. at RT, centrifuged at 10.000 rpm for 5 min, supernatant was removed, pellet was dissolved in 0.5 M acetic acid to remove unbound dye, and re-centrifuged at 10.000 rpm for 5 min, supernatant was removed and final pelet was dissolved in 1 ml 0.5M NaOH, shaken at RT for 5 h, 100 μl of resulted solution was placed in 96-well and O.D was determined at 600.

[5] = system: mouse tail model of lymphedema; assay: Mouse tail model of lymphedema; type: in vivo; details: once daily oral gavage, by 5 weeks; 7 animals per group
[6] = human, in vivo
Protocol: All Part 1 cohorts will be dosed every 12 hours with food for 5 days.
During the treatment period (Day 1 through Day 5), subjects will be administered their assigned study medication BID, every 12 h±0.25 h (with approximately 240 mL of non-carbonated water), 30 minutes after the start of consumption of their standardised breakfast or dinner (12 h apart). A standardised lunch will be served >4 h post breakfast and >4 h prior to dinner. An evening snack will be served >3 h following evening study medication administration. No additional fluids will be allowed during the 1 h pre- and post-doses. On Day 6, subjects will replicate mealtimes as scheduled on Day 1-5. To ensure study drug dosing every 12 hours, here is an example of meal and dosing schedule in Part 1: • Breakfast: meal to be served 30 mins prior to AM dosing. Breakfast must be completed within 30 mins of start time. • Lunch: meal to be served at least 4 h post-AM study drug dose. • Dinner: meal to be served at least 11.5 h post-AM dose and served 30 minutes prior to PM study drug dose. • Evening snack: Snack to be served at least 15 h post-AM dose (at least 3 h post-PM dose).
In Part 1, blood samples (4 mL each) for PK will be collected for Cohorts 1, 2, 3, 4, and 6 at specified times (hours) at each as follows: • Day 1 and Day 5: 0 (pre-dose), 0.5, 1, 1.5, 2, 2.5, 3, 3.5, 4, 6, 8, 12 (pre-dose), 13, 14, 15, 16, 18 h • Day 2, Day 3 and Day 4: 0 (pre-morning-dose) and 12 h (pre-evening-dose) • Day 6: 12, 18, 24 and 36 h post-last dose • Day 7: 48 h (post-last dose)
Pharmacokinetics for Day 1 to 3 in Part 2 (fed state) will be compared to PK for Day 1 to Day 3 in Part 2 (fasted state). Plasma PK parameters (non-compartmental or compartmental analysis as appropriate) will include, but are not limited to: • Following single dose: Tmax, tlag, Cmax, AUC0-4, AUC0-last, AUC0-inf, lambda z, % AUCext, CL/F, Vz/F, Cmax/D, AUC0-last/D, AUC0-inf/D and MRT (D is dose) • After repeated doses: Ctrough, Ctrough/D • Following repeated doses on last day: Tmax, Cmax, Cavg, tlag, t1/2, AUC0-4, AUC0-last, AUC0-inf, lambda z, % AUCext, CLss/F, Vzss/F, MRT, PTF, Rac(AUC), Rac(Cmax), Cmax/D, AUClast/D, AUC0-inf/D and Rac (accumulation ratio) Part 3 (Patients with Secondary Lymphoedema Post-Axillary/Post-Sentinel Node Dissection)

In the case of `[2H]C([2H])([2H])c1ccc(=O)n(-c2ccccc2)c1` [LYT-100, 5-(methyl-d3)-1-phenylpyridin-2-(1H)-one], the inhibition at 500 µM [1] is reported as 15%, the inhibition at 500 µM ([2]; TGF-β 5 ng/ml, 72 hours, p=0.0185, read-out: inhibition of TGF-β-dependent induction of soluble fibronectin) is reported as 11% and the inhibition at 500 µM ([2]; no TGF-β, p=0.03, read-out: inhibition of background level of soluble fibronectin) is reported as 10%. For the same compound, the inhibition at 500 µM ([3]; TGF-β 5 ng/ml, 72 hours, p=0.0001, read-out: inhibition of TGF-β-dependent increase of soluble collagen) was 36%, the inhibition at 500 µM ([3]; no TGF-β, p=0.0115, read-out: inhibition of background level of soluble collagen) was 23% and the “collagen synthesis in the absence of added TGF-β” value [4] was “significantly inhibits”. The TGF-induced collagen synthesis ([4]; TGF-β 5 ng/ml, 72 hrs) was “inhibits”, the “tail swelling vs carboxymethylcellulose control” value [5] was “significantly reduced swelling” and the “dose dependence of AUC96-108” value [6] was “linear dose proportionality”.
